Measured values reported in paper PMC7932521, “2-aminobenzimidazoles for leishmaniasis: From initial hit discovery to in vivo profiling” (PLoS Neglected Tropical Diseases, 2021).
Like-named read-outs stand apart in the source and are kept apart here.

How the values were obtained:
[1] = tested on: Leishmania infantum MHOM/MA(BE)/67/ITMAP263 amastigotes; assay: L. infantum intracellular amastigote assay in PMM; type: cell-based; conditions: for SI: selectivity index (CC50 / IC50): CC50 / L. infantum IC50; for IC50: read-out: L. infantum IC50
In short: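 Mouse peritoneal macrophages infected with hamster spleen-derived amastigotes (2 h, 37°C), then exposed to 4-fold dilutions from 64 μM (DMSO <1%) for 5 days at 37°C, 5% CO2. Burden scored microscopically after Giemsa staining as percent reduction vs untreated wells; IC50 as geometric mean of ≥2 experiments.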

[2] = Experimental distribution coefficient (eLogD); type: physicochemical; conditions: for chromatographic logD: reverse stationary phase HPLC column (Ascentis RP-Amide)
In short: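 Lipophilicity derived from retention time on an Ascentis RP-Amide reverse-phase column by LC-MS/MS, compounds at 1.0 μg/mL with internal standard; mobile phases 5% methanol in 10mM ammonium acetate pH 7.4 and 100% methanol. LogD calculated from a linear calibration of eight standards' retention times against known LogD.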

[3] = Plasma stability; type: in vitro ADME, mouse; conditions: for Mouse plasma stability: % remaining after 6h; for Plasma Stability: S1 Data
Method: Pooled plasma was thawed in a water bath at 37°C and centrifuged at 4,000 rpm for 5 min to remove any clots. Plasma solution was prepared by adding PBS (pH 7.4) in a 1:1 ratio. It was not necessary to adjust the pH of the final plasma solution. Plasma:PBS and test compound solutions were added to the incubation plate at a final concentration of 2 μM. The plate was incubated in a shaker at 37°C and 50 rpm. Samples were removed (25 μL) from each well of the incubation plate at multiple timepoints and added to a plate containing 100 μL of quench solution (200 ng/mL tolbutamide in 50% acetonitrile/methanol) to precipitate protein. The quenched aliquots were centrifuged at 4000 rpm for 10 min at 5°C. An aliquot of supernatant was transferred from each well to a plate for analysis by LC-MS/MS. Results were calculated as the percentage of remaining parent compound in plasma after incubation.

[4] = molecular target: T1, ETA (Homo sapiens, UniProt P25101); assay: Bioprofiling 6pt Ag ETA CHO; type: cell-based; conditions: agonist readout
T1 construct: expressed in transfected cells; host or cells: CHO
T1 sequence (P25101 21-427): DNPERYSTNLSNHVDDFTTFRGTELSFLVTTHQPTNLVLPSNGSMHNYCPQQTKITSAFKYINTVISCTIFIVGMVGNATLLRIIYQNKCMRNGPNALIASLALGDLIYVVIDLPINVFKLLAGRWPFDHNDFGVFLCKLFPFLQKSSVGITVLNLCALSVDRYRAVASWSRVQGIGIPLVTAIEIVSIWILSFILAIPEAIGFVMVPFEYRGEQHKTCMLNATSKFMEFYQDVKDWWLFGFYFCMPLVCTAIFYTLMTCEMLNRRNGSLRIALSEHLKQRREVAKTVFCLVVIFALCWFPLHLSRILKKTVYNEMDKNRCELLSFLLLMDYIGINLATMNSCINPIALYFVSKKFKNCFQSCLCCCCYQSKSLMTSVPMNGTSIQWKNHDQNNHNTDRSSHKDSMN
Method: (§1) The compounds were evaluated across a panel of 20 liability targets (37 functional assays) which included functional cell-based GPCRs and ion channels in both agonist and antagonist readout, measuring calcium flux and biochemical functional assays for nuclear hormone receptors and phosphodiesterases using TR-FRET format, in a 6 point 1:3 dilution dose series (maximum final concentration of 10 μM).

[5] = molecular target: T2, ETB (Homo sapiens, UniProt P24530); assay: Bioprofiling 6pt Ag ETB CHO; type: cell-based; conditions: agonist readout
T2 construct: expressed in transfected cells; host or cells: CHO
T2 sequence (P24530 27-442): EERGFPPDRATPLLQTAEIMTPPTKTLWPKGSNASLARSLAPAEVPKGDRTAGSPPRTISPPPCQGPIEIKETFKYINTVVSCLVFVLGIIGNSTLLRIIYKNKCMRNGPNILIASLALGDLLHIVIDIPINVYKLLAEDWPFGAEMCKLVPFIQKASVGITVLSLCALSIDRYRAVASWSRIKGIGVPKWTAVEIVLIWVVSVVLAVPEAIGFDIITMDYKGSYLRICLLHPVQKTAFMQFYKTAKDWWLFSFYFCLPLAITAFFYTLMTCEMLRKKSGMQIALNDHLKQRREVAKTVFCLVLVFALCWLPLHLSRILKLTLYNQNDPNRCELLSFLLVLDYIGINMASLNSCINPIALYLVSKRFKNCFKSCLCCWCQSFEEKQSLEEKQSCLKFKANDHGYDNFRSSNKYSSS
Method: as §1

[6] = molecular target: T3, B2 (Homo sapiens, UniProt P30411); assay: Bioprofiling 6pt Antag B2 CHO; type: cell-based; conditions: antagonist readout vs Bradykinin
T3 construct: expressed in transfected cells; host or cells: CHO
T3 sequence (P30411 1-391): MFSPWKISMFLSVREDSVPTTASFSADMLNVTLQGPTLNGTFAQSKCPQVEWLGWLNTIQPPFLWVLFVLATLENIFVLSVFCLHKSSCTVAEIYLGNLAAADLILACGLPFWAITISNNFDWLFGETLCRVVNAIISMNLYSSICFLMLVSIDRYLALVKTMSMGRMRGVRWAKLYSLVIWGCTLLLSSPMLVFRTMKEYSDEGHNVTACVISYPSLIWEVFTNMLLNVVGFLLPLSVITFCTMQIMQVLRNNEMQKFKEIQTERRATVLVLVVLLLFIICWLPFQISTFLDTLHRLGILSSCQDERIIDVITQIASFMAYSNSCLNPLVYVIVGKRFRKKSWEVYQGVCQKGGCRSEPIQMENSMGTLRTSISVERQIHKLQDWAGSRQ
Method: as §1

[7] = Leishmania infantum, 120 h, intracellular amastigotes in PMM, 5 days

In the case of `Cn1nccc1C(=O)Nc1nc2ccc(C#N)cc2n1CC(C)(C)C` [Compound 29, O=C(Nc1n(CC(C)(C)C)c(c2n1)cc(C#N)cc2)c3n(C)ncc3], the “SI: selectivity index (CC50 / IC50)” value [1] is reported as 7, the IC50 [1, 7] is reported as 4.1 µM and the IC50 ([1]; Leishmania infantum, S1 Data) is reported as 4.12 µM. For the same compound, the eLogD ([2]; S1 Data) was 3.39, the chromatographic logD ([2]; experimental, pH 7.4) was 3.4 and the Mouse plasma stability [3] was 99.8%. The “Plasma Stability” value [3] was 99.80%, the EC50 [4] was > 10 µM and the EC50 [5] was > 10 µM. The IC50 [6] was > 10 µM.
With `Cn1nccc1C(=O)Nc1nc2ccc(C#N)cc2n1CC(F)(F)F` [Compound 30, O=C(c1ccnn1C)Nc2nc(ccc(C#N)c3)c3n2CC(F)(F)F] the “SI: selectivity index (CC50 / IC50)” value [1] was 14, the IC50 [1, 7] was 2.2 µM and the IC50 ([1]; Leishmania infantum, S1 Data) was 2.22 µM. For the same compound, the eLogD ([2]; S1 Data) was 2.70, the chromatographic logD ([2]; experimental, pH 7.4) was 2.7 and the Mouse plasma stability [3] was 107%. For the same compound, the “Plasma Stability” value [3] was 107%, the EC50 [4] was > 10 µM and the EC50 [5] was > 10 µM. For the same compound, the IC50 [6] was > 10 µM.
With `Cn1nc(C(F)(F)F)cc1C(=O)Nc1nc2ccc(C#N)cc2n1CC(F)(F)F` [Compound 39, O=C(c1cc(C(F)(F)F)nn1C)Nc2nc(ccc(C#N)c3)c3n2CC(F)(F)F] the “SI: selectivity index (CC50 / IC50)” value [1] was 2, the “potency compared to initial hit 1” value ([1]; L. infantum IC50) was 10 to 20 fold and the “potency compared to parent compound 30” value ([1]; L. infantum IC50) was 4 fold. The IC50 [1, 7] was 0.5 µM, the IC50 ([1]; intracellular amastigotes in PMM, 5 days) was 0.53 µM and the eLogD ([2]; S1 Data) was 3.01. The chromatographic logD ([2]; experimental, pH 7.4) was 3, the Mouse plasma stability [3] was 111% and the “Plasma Stability” value [3] was 111%. For the same compound, the EC50 [4] was > 10 µM, the EC50 [5] was > 10 µM and the IC50 [6] was > 10 µM.
For `COc1ccc(C(=O)Nc2nc3ccc(C#N)cc3n2CC(F)(F)F)cn1` [Compound 43, O=C(c1ccc(OC)nc1)Nc2nc(ccc(C#N)c3)c3n2CC(F)(F)F], the “SI: selectivity index (CC50 / IC50)” value [1] was 5, the IC50 [1, 7] was 7 µM and the IC50 ([1]; Leishmania infantum, S1 Data) was 6.95 µM. The eLogD ([2]; experimental, pH 7.4) was 4.9, the chromatographic logD ([2]; pH 7.4, S1 Data) was 4.85 and the “Plasma Stability” value [3] was 92.20%. For the same compound, the EC50 [4] was > 10 µM, the EC50 [5] was > 10 µM and the IC50 [6] was > 10 µM.
For `N#Cc1ccc2nc(NC(=O)c3ccnc(C(F)(F)F)c3)n(CC(F)(F)F)c2c1` [Compound 44, O=C(c1ccnc(C(F)(F)F)c1)Nc2nc(ccc(C#N)c3)c3n2CC(F)(F)F], the “SI: selectivity index (CC50 / IC50)” value [1] was 5, the “potency compared to initial hit 1” value ([1]; L. infantum IC50) was 10 to 20 fold and the IC50 [1, 7] was 0.84 µM. The eLogD ([2]; S1 Data) was 3.12, the chromatographic logD ([2]; experimental, pH 7.4) was 3.1 and the Mouse plasma stability [3] was 111%. For the same compound, the “Plasma Stability” value [3] was 110.80%, the EC50 [4] was > 10 µM and the EC50 [5] was > 10 µM. For the same compound, the IC50 [6] was > 10 µM.
In the case of `N#Cc1ccc2nc(NC(=O)c3ccc(C(F)(F)F)nc3)n(CC(F)(F)F)c2c1` [Compound 45, O=C(c1ccc(C(F)(F)F)nc1)Nc2nc(ccc(C#N)c3)c3n2CC(F)(F)F], the “SI: selectivity index (CC50 / IC50)” value [1] is reported as 2, the IC50 [1, 7] is reported as 4.3 µM and the IC50 ([1]; Leishmania infantum, S1 Data) is reported as 4.28 µM. For the same compound, the eLogD ([2]; experimental, pH 7.4) was 3.1, the chromatographic logD ([2]; pH 7.4, S1 Data) was 3.1 and the “Plasma Stability” value [3] was 135%. The EC50 [4] was > 10 µM, the EC50 [5] was > 10 µM and the IC50 [6] was > 10 µM.
